Laboratory results taken from patent US9980943B2, “Methods of treating muscular dystrophy” (BOARD OF REGENTS OF THE NEVADA SYSTEM OF HIGHER EDUCATION, …, priority 2013, dated 2018).

What was measured:
Type in all cases: cell-based, mouse
[1] = tested on: α7 integrin (LacZ reporter in α7+/LacZ myotubes); assay: Myotube α7 integrin FDG assay (Burkin assay in myotubes, 96-well); settings: myotubes
[2] = tested on: β-galactosidase in CMV-LacZ C2C12 myotubes; assay: CMV-LacZ secondary screen in C2C12 myotubes (β-Gal stabilizing assay); settings: for CMV-LACZ in Myotubes, signal relative to DMSO: C2C12 CMV-LacZ myotubes, fold relative to DMSO; for CMV-LACZ in Myotubes (β-galactosidase activity relative to DMSO): CMV-LacZ C2C12 myotubes, 96-well format
Method in brief: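 β-Gal level was the read-out, measured in a clonal C2C12 line expressing LacZ from a CMV promoter. Dose-response curves used six concentrations, 0.5 μM up to 40 μM, with duplicate points.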

[3] = tested on: α7 integrin (LacZ reporter in α7βgal+/− myoblasts); assay: Myoblast α7+/LacZ integrin FDG assay (Burkin assay in myoblasts, 96-well); settings: α7+/LacZ myoblasts, 96-well

| Compound | Burkin Assay in Myotubes (signal relative to DMSO) ([1]; 0.5 uM) | Burkin Assay in Myotubes (signal relative to DMSO) ([1]; 1 uM) | Burkin Assay in Myotubes (signal relative to DMSO) ([1]; 5 uM) | Burkin Assay in Myotubes (signal relative to DMSO) ([1]; 10 uM) | Burkin Assay in Myotubes (signal relative to DMSO) ([1]; 20 uM) | Burkin Assay in Myotubes (signal relative to DMSO) ([1]; 40 uM) | CMV-LACZ in Myotubes, signal relative to DMSO ([2]; 5 uM) | CMV-LACZ in Myotubes, signal relative to DMSO ([2]; 10 uM) | CMV-LACZ in Myotubes, signal relative to DMSO ([2]; 20 uM) | CMV-LACZ in Myotubes, signal relative to DMSO ([2]; 40 uM) | Burkin Assay in Myoblasts, value relative to DMSO ([3]; 0.5 uM) | Burkin Assay in Myoblasts, value relative to DMSO ([3]; 1 uM) | Burkin Assay in Myoblasts, value relative to DMSO ([3]; 5 uM) | Burkin Assay in Myoblasts, value relative to DMSO ([3]; 10 uM) | Burkin Assay in Myoblasts, value relative to DMSO ([3]; 20 uM) | Burkin Assay in Myoblasts, value relative to DMSO ([3]; 40 uM) | CMV-LACZ in Myotubes (β-galactosidase activity relative to DMSO) ([2]; 5 uM) | CMV-LACZ in Myotubes (β-galactosidase activity relative to DMSO) ([2]; 10 uM) | CMV-LACZ in Myotubes (β-galactosidase activity relative to DMSO) ([2]; 20 uM) | CMV-LACZ in Myotubes (β-galactosidase activity relative to DMSO) ([2]; 40 uM) | further results |
| --- | --- | --- | --- | --- | --- | --- | --- | --- | --- | --- | --- | --- | --- | --- | --- | --- | --- | --- | --- | --- | --- |
| COc1ccccc1N(C(=O)CNC(=O)c1ccco1)C(C(=O)NC1CCCCC1)c1ccncc1 (stereo not shown) [MLS001220669-01] | 0.9722 | 0.978 | 1.0117 | 1.038 | 1.003 | 1.011 | 0.8274 | 0.7701 | 1.0114 | 1 | 1 | 0.9426 | 0.9016 | 0.9605 | 0.8701 | 0.7613 | – | – | – | – | – |
| Cc1cc(NC(=O)CCC(=O)N(Cc2cccnc2)C(C(=O)NC(C)(C)C)c2ccccc2Cl)no1 (stereo not shown) [MLS001220803-01] | 0.9345 | 0.9703 | 1.18 | 1.075 | 1.0147 | 0.9622 | – | – | – | – | 0.9688 | 1.0343 | 0.8878 | 0.9511 | 0.9503 | 0.9906 | 1.115 | 1.064 | 1.091 | 1.05 | – |
| COc1ccc(N2CCCC2)c(NC(=O)c2ccc([N+](=O)[O-])o2)c1 [MLS001221619-01] | 0.826 | 0.9557 | 0.944 | 1.012 | 0.8603 | 1.034 | – | – | – | – | 0.6855 | 0.7633 | 0.7367 | 0.6764 | 0.9648 | 0.8976 | 1.172 | 1.321 | 1.513 | 1.781 | – |
| Cc1ccc(S(=O)(=O)NC(C)C(=O)NC(C)c2cccs2)cc1 (stereo not shown) [MLS001221867-01] | – | – | – | – | – | – | 0.9954 | 0.9834 | 1.0515 | 1.0745 | – | – | – | – | – | – | – | – | – | – | Burkin Assay in Myotubes, α7 integrin LacZ reporter signal relative to DMSO ([1]; 0.5 uM): 0.9728; Burkin Assay in Myotubes, α7 integrin LacZ reporter signal relative to DMSO ([1]; 1 uM): 0.9422; Burkin Assay in Myotubes, α7 integrin LacZ reporter signal relative to DMSO ([1]; 5 uM): 0.9593; Burkin Assay in Myotubes, α7 integrin LacZ reporter signal relative to DMSO ([1]; 10 uM): 0.9374; Burkin Assay in Myotubes, α7 integrin LacZ reporter signal relative to DMSO ([1]; 20 uM): 1.02; Burkin Assay in Myotubes, α7 integrin LacZ reporter signal relative to DMSO ([1]; 40 uM): 0.9915; Burkin Assay in Myoblasts, signal relative to DMSO ([3]; 0.5 uM): 1.001; Burkin Assay in Myoblasts, signal relative to DMSO ([3]; 1 uM): 1.024; Burkin Assay in Myoblasts, signal relative to DMSO ([3]; 5 uM): 0.9275; Burkin Assay in Myoblasts, signal relative to DMSO ([3]; 10 uM): 0.922; Burkin Assay in Myoblasts, signal relative to DMSO ([3]; 20 uM): 0.9616; Burkin Assay in Myoblasts, signal relative to DMSO ([3]; 40 uM): 0.8943 |
